Assay results published in article PMC3996151, “Safety and pharmacological characterization of the molecular tweezer CLR01 – a broad-spectrum inhibitor of amyloid proteins’ toxicity” (BMC Pharmacology & Toxicology, 2014).

Assays:
[1] = set-up: method as in PMID 23183235; conditions: human plasma; cited from earlier work
[2] = target: Poly [ADP-ribose] polymerase 1 (PARP-1); set-up: method as in T. Schrader, unpublished results; conditions: enzyme concentration of 2.3 nM; ref T. Schrader, unpublished results; cited from earlier work
[3] = Plasma concentration by LC-MS after SC, IV or oral administration; assay type: in vivo, mouse
Description: For studies of plasma concentration, CLR01 was administered by either SC or intravenous (IV) injection at 1 mg/kg, or by oral gavage at 10 mg/kg, and plasma was collected at time points between 0.33 - 24 h. Three mice were used per time point. The concentration of CLR01 in plasma was determined by Wolfe Laboratories Inc. (Watertown, MA) using liquid chromatography-mass spectrometry (LC-MS) by interpolation of sample peak area data into the calibration curve.

[4] = set-up: method as in PMID 18605724, PMID 23750919; conditions: cited from earlier work
[5] = test system: nerve growth factor-differentiated rat pheochromocytoma cells; set-up: method as in PMID 21916458, PMID 22860214; conditions: cited from earlier work
[6] = Solubility in aqueous solutions; assay type: physicochemical
cytochrome P450 system = test system: cytochrome P450 system; set-up: method as in PMID 23183235; conditions: up to 10-μM, compared to rifampicin positive control; cited from earlier work
[7] = In vitro dephosphorylation by brain homogenate (inorganic phosphate release); assay type: in vitro ADME, mouse; conditions: 50 nmol CLR01, 1.5 mg mouse-brain homogenate, 60 min at 60°C
Description: Potential dephosphorylation of CLR01 was analyzed by incubating 100 nmol CLR01 with 0.08 units of alkaline phosphatase (ALP; calf intestinal alkaline phosphatase, Promega, Madison, Wisconsin) for 60 min at 60°C. One enzymatic unit is defined as the amount of enzyme required for catalyzing the hydrolysis of 1 μmol of p-nitrophenylphosphate per minute. p-Nitrophenylphosphate disodium salt at 5–50 nmol (Fisher, Waltham, Massachusetts) was used for generation of a standard curve. The amount of inorganic phosphate generated was measured spectrophotometrically using an EnzChek Phosphate Assay kit (Life Technologies, Carlsbad, California) according to the manufacturer’s instructions on a DU-640 spectrophotometer (Beckman Coulter, Brea, California) at λ = 360 nm. Baseline values were subtracted from readings and compared to the standard curve resulting from serial ALP reactions to calculate the amount of inorganic phosphate. Similarly, potential dephosphorylation of CLR01 by brain homogenates was measured. For these experiments, one brain hemisphere was homogenized by sonication in the presence of cOmplete protease-inhibitor cocktail (Roche, Penzberg, Germany). Protein concentration was measured using a BCA Protein Assay Kit (Pierce, Rockford, Illinois). […]

3×Tg mouse model of AD = test system: 3×Tg mouse model of AD; set-up: method as in PMID 23183235; conditions: cited from earlier work
[8] = set-up: method as in PMID 23183235; conditions: 3H-CLR01 IV, 12-m old WT and 3×Tg AD mice; cited from earlier work
[9] = set-up: method as in Lopes et al., submitted; conditions: SC pumps; ref Lopes et al., submitted; cited from earlier work

## O=P(O)(O)Oc1c2c(c(OP(=O)(O)O)c3c1C1CC3c3cc4c(cc31)C1CC4c3ccccc31)C1CC2c2cc3c(cc21)C1CC3c2ccccc21 [CLR01]
[1]
  Stability: 100%
[2]
  IC50: 3.3 µM
[3]; 1 mg/kg SC vs IV, 2-m old WT mice
  SC bioavailability: identical, within experimental error, to the IV administration
[3]; 20 min, SC or IV 1 mg/kg
  Administered dose detected in the blood at the earliest time point: ~ 30%
[3]; 8 h following SC or IV administration
  Initial CLR01 levels found in the plasma: Approximately 5%
[3]; mouse, plasma, subcutaneous, SC or IV 1 mg/kg
  half-life: ~2.5 h
[3]; oral gavage 10 mg/kg
  Oral bioavailability: negligible
[4]
  Affinity for Arg relative to Lys, fold lower: ~ 10 fold
[5]
  Concentration at which a mild decrease in cell viability was observed: 400 µM
  Concentration up to which no toxicity was detected: up to 200 μM
[6]
  Solubility in aqueous solutions: soluble at millimolar concentrations
Cytochrome P450 system
  Activation of the cytochrome P450 system: Minimal activation
[7]
  Inorganic phosphate released on incubation with brain homogenate: no release of inorganic phosphate was detected
3×Tg mouse model of AD; SC, 40 μg/kg/day
  Effect on AD-like brain pathology: significant decrease in amyloid plaque burden and hyperphosphorylated tau
3×Tg mouse model of AD; treated AD mice
  Effect on APP processing: did not affect processing of amyloid β-protein precursor (APP)
[8]
  Radioactivity levels in the brain, % of blood levels: ~ 2%
[9]
  Administered CLR01 in the blood at steady-state: 0.7%
